From ChEMBL document CHEMBL4507293 (2021)
Active and inactive are the calls of the source. The rule behind the calls is not given here.

Columns and labels:
[1] = biological target: T1, cAMP and cAMP-inhibited cGMP 3',5'-cyclic phosphodiesterase 10A (Homo sapiens, UniProt Q9Y233); assay: Biochemical assay (PDE10A)
[2] = biological target: Mitogen-activated protein kinase kinase kinase kinase 1 (Homo sapiens) (UniProt Q92918); settings: Compound concentration 100.0 nM
[3] = biological target: Mitogen-activated protein kinase kinase kinase 2 (Homo sapiens) (UniProt Q9Y2U5); settings: Compound concentration 100.0 nM
[4] = biological target: Serine/threonine-protein kinase ULK1 (Homo sapiens) (UniProt O75385); settings: Compound concentration 100.0 nM
[5] = biological target: 5-hydroxytryptamine receptor 3A (Homo sapiens) (UniProt P46098); settings: Compound concentration 10.0 uM
[6] = biological target: Alpha-1D adrenergic receptor (Homo sapiens) (UniProt P25100); assay: Inhibition of Adrenergic alpha1D at 10 µM in the Eurofins-Panlabs radioligand binding assay (Eurofins_assay_203400); settings: Compound concentration 10.0 uM
Sequence of Alpha-1D adrenergic receptor (Homo sapiens) (P25100 whole entry): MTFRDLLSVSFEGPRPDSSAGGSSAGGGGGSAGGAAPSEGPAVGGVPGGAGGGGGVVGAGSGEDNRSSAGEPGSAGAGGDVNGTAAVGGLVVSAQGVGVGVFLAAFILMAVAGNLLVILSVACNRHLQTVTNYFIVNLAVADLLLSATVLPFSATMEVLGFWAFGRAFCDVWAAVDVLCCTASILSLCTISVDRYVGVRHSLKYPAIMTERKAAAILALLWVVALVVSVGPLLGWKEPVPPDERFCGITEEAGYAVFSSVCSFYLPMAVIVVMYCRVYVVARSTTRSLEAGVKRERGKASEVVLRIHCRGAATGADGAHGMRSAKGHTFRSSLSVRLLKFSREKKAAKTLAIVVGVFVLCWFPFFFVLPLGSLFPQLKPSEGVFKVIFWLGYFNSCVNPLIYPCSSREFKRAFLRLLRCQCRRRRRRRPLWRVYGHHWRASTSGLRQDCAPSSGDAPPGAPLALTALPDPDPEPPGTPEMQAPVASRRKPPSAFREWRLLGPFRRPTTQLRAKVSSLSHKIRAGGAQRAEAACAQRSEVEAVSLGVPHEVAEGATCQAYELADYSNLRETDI

Homo sapiens [7] = species: Homo sapiens; assay: Inhibition of Nicotinic Acetylcholine at compound concentration of 10.0 uM in the Eurofins-Panlabs radioligand binding assay (Eurofins_assay_258590); assay type: protein-complex assay; settings: Compound concentration 10.0 uM
[8] = biological target: ATP-sensitive inward rectifier potassium channel 11 (Cricetulus griseus) (UniProt A0A3L7HHE1); assay: Inhibition of Potassium Channel [KATP] at 10 µM in the Eurofins-Panlabs radioligand binding assay (Eurofins_assay_265600); settings: Cricetinae; Compound concentration 10.0 uM
Sequence of ATP-sensitive inward rectifier potassium channel 11 (Cricetulus griseus) (A0A3L7HHE1 as listed by the source): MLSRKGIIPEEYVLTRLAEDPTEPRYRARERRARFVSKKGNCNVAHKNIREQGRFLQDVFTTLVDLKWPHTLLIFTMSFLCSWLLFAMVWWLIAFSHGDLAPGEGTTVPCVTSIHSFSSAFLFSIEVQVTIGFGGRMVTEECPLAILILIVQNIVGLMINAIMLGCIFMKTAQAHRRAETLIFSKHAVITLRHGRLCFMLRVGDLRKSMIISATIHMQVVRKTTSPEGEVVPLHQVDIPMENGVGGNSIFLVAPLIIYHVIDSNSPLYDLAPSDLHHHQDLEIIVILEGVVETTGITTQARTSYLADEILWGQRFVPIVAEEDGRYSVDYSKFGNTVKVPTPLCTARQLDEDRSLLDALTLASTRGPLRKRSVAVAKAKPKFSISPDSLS

[9] = biological target: Alpha-2A adrenergic receptor (Homo sapiens) (UniProt P08913); assay: Adrenergic alpha2A Eurofins-Panlabs radioligand binding assay; set-up: ligand concentration 1 nM, non-specific ligand with concentration 10 µM WB-4101, incubation time 60 min, incubation temperature 25 °C; settings: Compound concentration 10.0 uM
[10] = biological target: Melanocortin receptor 3 (Homo sapiens) (UniProt P41968); assay: Inhibition of Melanocortin MC3 at 10 µM in the Eurofins-Panlabs radioligand binding assay (Eurofins_assay_251300); set-up: ligand concentration 0.035 nM; settings: Compound concentration 10.0 uM
Sequence of Melanocortin receptor 3 (Homo sapiens) (P41968 whole entry): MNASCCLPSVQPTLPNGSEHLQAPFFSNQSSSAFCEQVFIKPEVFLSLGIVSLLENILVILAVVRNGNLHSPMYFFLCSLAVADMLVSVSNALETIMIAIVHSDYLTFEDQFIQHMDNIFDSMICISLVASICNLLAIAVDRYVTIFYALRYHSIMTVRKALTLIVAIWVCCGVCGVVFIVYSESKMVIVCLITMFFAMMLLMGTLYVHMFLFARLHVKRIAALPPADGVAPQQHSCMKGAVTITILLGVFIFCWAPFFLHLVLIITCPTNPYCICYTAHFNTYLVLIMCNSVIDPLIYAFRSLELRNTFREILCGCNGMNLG

[11] = biological target: Melanocortin receptor 5 (Homo sapiens) (UniProt P33032); assay: Inhibition of Melanocortin MC5 at 10 µM in the Eurofins-Panlabs radioligand binding assay (Eurofins_assay_251400); set-up: ligand concentration 0.035 nM; settings: Compound concentration 10.0 uM
[12] = biological target: Adenosine Transporter (Cavia porcellus) (UniProt H0V4R7+H0UUG1+H0V3Z5); assay: (§1) Inhibition of Transporter, Adenosine at compound concentration of 10.0 uM in the Eurofins-Panlabs radioligand binding assay (Eurofins_assay_202000); assay type: protein assay; set-up: ligand concentration 0.5 nM, non-specific ligand with concentration 5 uM Nitrobenzylthioinosine, incubation time 30 min, incubation temperature 25 C
Adenosine Transporter = Adenosine Transporter (Cavia porcellus, UniProt H0V4R7+H0UUG1+H0V3Z5); assay: as §1; assay type: protein assay; set-up: ligand concentration 0.5 nM, non-specific ligand with concentration 5 uM Nitrobenzylthioinosine, incubation time 30 min, incubation temperature 25 C
[13] = biological target: Vasoactive intestinal polypeptide receptor 1 (Homo sapiens) (UniProt P32241); assay: Inhibition of Vasoactive Intestinal Peptide VIP1 at 10 µM in the Eurofins-Panlabs radioligand binding assay (Eurofins_assay_287010); settings: Compound concentration 10.0 uM
[14] = biological target: Substance-P receptor (Homo sapiens) (UniProt P25103); assay: Tachykinin NK1 Eurofins-Panlabs radioligand binding assay; settings: Compound concentration 10.0 uM
Sequence of Substance-P receptor (Homo sapiens) (P25103 whole entry): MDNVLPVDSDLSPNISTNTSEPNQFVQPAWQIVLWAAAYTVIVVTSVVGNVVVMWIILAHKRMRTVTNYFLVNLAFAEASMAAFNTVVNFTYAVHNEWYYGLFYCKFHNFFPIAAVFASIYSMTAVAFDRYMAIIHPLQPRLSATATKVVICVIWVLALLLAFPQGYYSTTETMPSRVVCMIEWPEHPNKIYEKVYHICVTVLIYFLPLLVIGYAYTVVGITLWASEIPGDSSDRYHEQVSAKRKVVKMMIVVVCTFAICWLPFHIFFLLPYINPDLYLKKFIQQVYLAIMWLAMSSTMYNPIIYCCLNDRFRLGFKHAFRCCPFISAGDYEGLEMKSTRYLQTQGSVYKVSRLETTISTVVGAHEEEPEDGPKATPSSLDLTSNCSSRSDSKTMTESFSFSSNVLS

[15] = biological target: MAP/microtubule affinity-regulating kinase 3 (Homo sapiens) (UniProt P27448); assay: Protein Serine/Threonine Kinase, MARK3 Eurofins-Panlabs enzyme assay; settings: Compound concentration 10.0 uM
[16] = biological target: Adrenomedullin receptor AM1; CALCRL/RAMP2 (Homo sapiens) (UniProt O60895+Q16602); assay: Adrenomedullin AM1 Eurofins-Panlabs radioligand binding assay; assay type: protein-complex assay; settings: Compound concentration 10.0 uM
[17] = biological target: Nociceptin receptor (Homo sapiens) (UniProt P41146); assay: Orphanin ORL1 Eurofins-Panlabs radioligand binding assay; settings: Compound concentration 10.0 uM
Sequence of Nociceptin receptor (Homo sapiens) (P41146 whole entry): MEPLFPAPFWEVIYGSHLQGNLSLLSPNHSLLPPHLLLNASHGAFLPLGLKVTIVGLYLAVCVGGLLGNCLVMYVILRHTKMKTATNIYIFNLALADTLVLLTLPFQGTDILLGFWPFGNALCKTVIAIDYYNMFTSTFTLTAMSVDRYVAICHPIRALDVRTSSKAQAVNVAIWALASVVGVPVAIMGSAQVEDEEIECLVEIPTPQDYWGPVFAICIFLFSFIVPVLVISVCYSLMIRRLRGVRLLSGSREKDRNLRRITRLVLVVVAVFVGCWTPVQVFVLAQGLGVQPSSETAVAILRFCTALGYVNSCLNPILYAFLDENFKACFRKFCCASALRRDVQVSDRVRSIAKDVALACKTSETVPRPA

[18] = biological target: Prostaglandin E2 receptor EP3 subtype (Homo sapiens) (UniProt P43115); assay: Prostanoid EP3 Eurofins-Panlabs radioligand binding assay; set-up: ligand concentration 0.5 nM, non-specific ligand with concentration 10 µM Prostaglandin EŽ2 (PGE2), incubation time 60 min, incubation temperature 25 °C; settings: Compound concentration 10.0 uM
[19] = biological target: Thyrotropin-releasing hormone receptor (Homo sapiens) (UniProt P34981); assay: Thyrotropin Releasing Hormone (TRH) Eurofins-Panlabs radioligand binding assay; set-up: ligand concentration 3 nM; settings: Rattus norvegicus; Compound concentration 10.0 uM
[20] = biological target: Vasopressin V1b receptor (Homo sapiens) (UniProt P47901); assay: Inhibition of Vasopressin V1B at 10 µM in the Eurofins-Panlabs radioligand binding assay (Eurofins_assay_287560); set-up: ligand concentration 1 nM; settings: Compound concentration 10.0 uM
[21] = biological target: Insulin receptor (Homo sapiens) (UniProt P06213); assay: Protein Tyrosine Kinase, Insulin Receptor Eurofins-Panlabs enzyme assay; set-up: substrate with concentration 10 µg/mL Histone H1, incubation time 60 min, incubation temperature 25 °C; settings: Compound concentration 10.0 uM
Sequence of Insulin receptor (Homo sapiens) (P06213 28-758 limits assumed): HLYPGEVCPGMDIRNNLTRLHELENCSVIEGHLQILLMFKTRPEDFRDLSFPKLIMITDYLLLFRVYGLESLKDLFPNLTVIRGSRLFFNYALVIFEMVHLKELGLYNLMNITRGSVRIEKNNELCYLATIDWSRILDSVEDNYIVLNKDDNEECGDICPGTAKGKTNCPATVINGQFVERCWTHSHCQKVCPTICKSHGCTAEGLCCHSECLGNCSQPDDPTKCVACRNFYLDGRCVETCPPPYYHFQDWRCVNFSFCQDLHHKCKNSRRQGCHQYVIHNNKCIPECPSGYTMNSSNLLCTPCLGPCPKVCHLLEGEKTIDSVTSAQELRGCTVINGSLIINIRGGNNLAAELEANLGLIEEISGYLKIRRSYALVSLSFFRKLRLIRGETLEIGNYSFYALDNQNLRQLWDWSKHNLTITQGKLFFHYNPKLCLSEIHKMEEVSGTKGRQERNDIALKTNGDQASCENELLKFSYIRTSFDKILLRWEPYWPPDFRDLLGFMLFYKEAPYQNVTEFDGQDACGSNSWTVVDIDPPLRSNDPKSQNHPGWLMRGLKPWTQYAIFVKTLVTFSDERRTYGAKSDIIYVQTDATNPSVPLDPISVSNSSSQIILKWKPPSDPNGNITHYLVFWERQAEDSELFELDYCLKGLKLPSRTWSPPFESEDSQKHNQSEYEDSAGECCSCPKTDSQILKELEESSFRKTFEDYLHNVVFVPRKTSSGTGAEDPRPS
Sequence of Insulin receptor (Homo sapiens) (P06213 763-1382 limits assumed): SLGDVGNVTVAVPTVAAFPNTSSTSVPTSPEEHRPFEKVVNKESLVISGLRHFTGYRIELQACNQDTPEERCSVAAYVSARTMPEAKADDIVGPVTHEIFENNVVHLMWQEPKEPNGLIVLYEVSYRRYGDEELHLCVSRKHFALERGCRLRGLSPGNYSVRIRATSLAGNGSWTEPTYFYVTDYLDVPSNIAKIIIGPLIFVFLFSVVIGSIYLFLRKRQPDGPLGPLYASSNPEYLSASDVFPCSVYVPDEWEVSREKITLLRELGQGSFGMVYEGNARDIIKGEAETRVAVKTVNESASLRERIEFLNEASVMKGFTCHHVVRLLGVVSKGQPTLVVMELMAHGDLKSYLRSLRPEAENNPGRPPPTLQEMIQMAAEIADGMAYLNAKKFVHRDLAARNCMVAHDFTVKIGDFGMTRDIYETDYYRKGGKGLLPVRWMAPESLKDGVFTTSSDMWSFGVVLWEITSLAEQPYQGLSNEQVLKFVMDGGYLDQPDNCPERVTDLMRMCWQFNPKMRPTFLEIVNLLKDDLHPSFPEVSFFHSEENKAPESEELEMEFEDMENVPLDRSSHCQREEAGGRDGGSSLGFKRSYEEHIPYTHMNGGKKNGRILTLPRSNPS

Homo sapiens [22] = species: Homo sapiens; assay: Cholecystokinin CCK2 (CCKB) Eurofins-Panlabs radioligand binding assay; set-up: ligand concentration 0.072 nM, non-specific ligand with concentration 1 µM Sincalide, incubation time 3 h, incubation temperature 25 °C; settings: Compound concentration 10.0 uM
[23] = biological target: T1, cAMP and cAMP-inhibited cGMP 3',5'-cyclic phosphodiesterase 10A; assay: Cell assay
[24] = biological target: 5-hydroxytryptamine receptor 5A (Homo sapiens) (UniProt P47898); settings: Compound concentration 10.0 uM
[25] = biological target: Alpha-1D adrenergic receptor (Homo sapiens) (UniProt P25100); settings: Compound concentration 10.0 uM
[26] = biological target: Adenosine receptor A2a (Homo sapiens) (UniProt P29274); settings: Compound concentration 10.0 uM
[27] = biological target: Cannabinoid receptor 1 (Homo sapiens) (UniProt P21554); settings: Compound concentration 10.0 uM
Sequence of Cannabinoid receptor 1 (Homo sapiens) (P21554 whole entry): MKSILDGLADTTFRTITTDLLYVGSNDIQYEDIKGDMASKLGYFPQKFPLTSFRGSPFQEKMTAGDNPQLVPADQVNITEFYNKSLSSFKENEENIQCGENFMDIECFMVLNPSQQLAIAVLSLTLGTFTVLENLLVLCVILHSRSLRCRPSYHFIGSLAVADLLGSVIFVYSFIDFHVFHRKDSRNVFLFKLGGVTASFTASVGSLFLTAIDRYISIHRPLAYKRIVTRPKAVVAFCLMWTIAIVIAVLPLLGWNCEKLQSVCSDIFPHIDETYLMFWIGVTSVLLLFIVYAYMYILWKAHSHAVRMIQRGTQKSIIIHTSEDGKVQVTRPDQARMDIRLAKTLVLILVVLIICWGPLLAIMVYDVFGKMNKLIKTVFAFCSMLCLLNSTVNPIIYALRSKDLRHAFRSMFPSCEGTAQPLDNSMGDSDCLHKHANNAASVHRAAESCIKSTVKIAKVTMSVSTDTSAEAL

[28] = biological target: Glutamate NMDA receptor (Rattus norvegicus) (UniProt P35439+Q00959+Q00960+Q00961+Q62645+Q8VHN2+Q9R1M7); settings: Compound concentration 10.0 uM
[29] = biological target: Histamine H1 receptor (Homo sapiens) (UniProt P35367); settings: Compound concentration 10.0 uM
[30] = biological target: Histamine H2 receptor (Homo sapiens) (UniProt P25021); settings: Compound concentration 10.0 uM
[31] = biological target: T2, 5-hydroxytryptamine receptor 1A (Homo sapiens) (UniProt P08908); settings: Compound concentration 10.0 uM
T2 sequence (whole entry): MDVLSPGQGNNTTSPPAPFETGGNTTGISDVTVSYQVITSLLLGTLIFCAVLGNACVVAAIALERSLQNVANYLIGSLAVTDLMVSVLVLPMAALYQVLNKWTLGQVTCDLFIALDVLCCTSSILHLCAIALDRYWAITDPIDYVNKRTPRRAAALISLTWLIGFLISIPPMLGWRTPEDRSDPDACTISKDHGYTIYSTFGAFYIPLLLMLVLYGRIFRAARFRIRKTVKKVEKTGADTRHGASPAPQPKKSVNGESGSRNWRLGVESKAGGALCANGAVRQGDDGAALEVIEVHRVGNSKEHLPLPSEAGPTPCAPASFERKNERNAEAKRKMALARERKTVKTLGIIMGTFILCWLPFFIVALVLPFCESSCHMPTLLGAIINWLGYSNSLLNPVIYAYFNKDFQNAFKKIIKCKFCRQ

[32] = biological target: Sodium-dependent noradrenaline transporter (Homo sapiens) (UniProt P23975); settings: Compound concentration 10.0 uM
[33] = biological target: Sodium-dependent serotonin transporter (Homo sapiens) (UniProt P31645); settings: Compound concentration 10.0 uM
[34] = biological target: Vasopressin V1a receptor (Homo sapiens) (UniProt P37288); settings: Compound concentration 10.0 uM
[35] = biological target: Gamma-aminobutyric acid type B receptor subunit 1 (Homo sapiens) (UniProt Q9UBS5); settings: Rattus norvegicus; Compound concentration 10.0 uM

T1 sequence (Q9Y233 whole entry): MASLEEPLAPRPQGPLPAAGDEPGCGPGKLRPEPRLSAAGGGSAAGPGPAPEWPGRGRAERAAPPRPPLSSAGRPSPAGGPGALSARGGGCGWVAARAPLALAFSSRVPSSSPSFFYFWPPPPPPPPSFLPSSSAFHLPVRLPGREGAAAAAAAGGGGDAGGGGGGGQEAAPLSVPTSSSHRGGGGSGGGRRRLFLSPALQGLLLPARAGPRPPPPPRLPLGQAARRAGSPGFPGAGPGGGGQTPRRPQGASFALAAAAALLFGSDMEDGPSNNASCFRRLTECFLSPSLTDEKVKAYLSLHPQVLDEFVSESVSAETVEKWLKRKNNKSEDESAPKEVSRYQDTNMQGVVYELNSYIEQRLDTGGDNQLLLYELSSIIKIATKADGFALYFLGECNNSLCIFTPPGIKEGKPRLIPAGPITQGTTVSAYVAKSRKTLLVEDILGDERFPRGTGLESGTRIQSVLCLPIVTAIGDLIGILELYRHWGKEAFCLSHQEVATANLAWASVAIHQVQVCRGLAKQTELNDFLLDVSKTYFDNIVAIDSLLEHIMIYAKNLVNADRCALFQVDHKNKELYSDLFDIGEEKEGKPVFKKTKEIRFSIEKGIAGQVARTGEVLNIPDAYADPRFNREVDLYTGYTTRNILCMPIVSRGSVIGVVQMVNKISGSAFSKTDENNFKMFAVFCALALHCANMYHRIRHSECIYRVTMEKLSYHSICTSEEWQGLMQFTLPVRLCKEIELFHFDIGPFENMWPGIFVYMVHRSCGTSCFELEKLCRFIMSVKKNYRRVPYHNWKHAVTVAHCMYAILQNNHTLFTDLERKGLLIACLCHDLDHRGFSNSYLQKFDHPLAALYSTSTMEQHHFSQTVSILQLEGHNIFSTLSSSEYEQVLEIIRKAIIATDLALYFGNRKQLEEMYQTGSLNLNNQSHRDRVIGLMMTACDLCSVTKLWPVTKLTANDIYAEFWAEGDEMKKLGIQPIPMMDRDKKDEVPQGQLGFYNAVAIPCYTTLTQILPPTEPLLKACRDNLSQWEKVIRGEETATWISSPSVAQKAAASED

`CC(C)CC(=O)N1CCc2nc(-c3ccc(Br)cc3)nc(N(C)Cc3ccccc3)c2C1` [THPP-1-NC] was tested, and the Ki [1] was 522 nM (not active), the residual activity [2] was 93% and the residual activity [3] was 100%. For the same compound, the residual activity [4] was 90% and the inhibition [5] was -4.38%.

Compound `COCCOc1nc(-c2ccc(Cl)nc2)nc2c1CN(C(=O)c1ncn3ccccc13)CC2` [THPP-1] has an inhibition [6] of 45%, an inhibition (Homo sapiens [7]) of -7% and an inhibition [8] of -4%. The inhibition [9] was -3%, the inhibition [10] was 0% and the inhibition [11] was 6%. For the same compound, the inhibition ([12]; Compound concentration 0.01 uM) was -6%, the inhibition ([12]; Compound concentration 0.1 uM) was 21% and the inhibition ([12]; Compound concentration 1.0 uM) was 40%. It also gave an inhibition ([12]; Compound concentration 10.0 uM) of 75%, an IC50 (Adenosine Transporter) of 1610 nM and a Ki (Adenosine Transporter) of 550 nM. It also gave an inhibition [13] of 8%, an inhibition [14] of 8% and an inhibition [15] of 7%. For the same compound, the inhibition [16] was -6%, the inhibition [17] was 5% and the inhibition [18] was -1%. It also gave an inhibition [19] of 7%, an inhibition [20] of 5% and an inhibition [21] of -2%. The inhibition (Homo sapiens [22]) was -8%, the IC50 [23] was 49 nM (active) and the inhibition [24] was -7.27%. It also gave an inhibition [25] of -4.48%, an inhibition [26] of 17% and an inhibition [27] of 21%. For the same compound, the inhibition [28] was 3%, the inhibition [29] was 0% and the inhibition [30] was 2%. For the same compound, the inhibition [31] was 8%, the inhibition [32] was 3% and the inhibition [33] was 2%. For the same compound, the inhibition [34] was 1% and the inhibition [35] was -5%.
